Experimental data as given in ChEMBL document CHEMBL3227927, “Synthesis and hypoglycemic activity of pyridyl alcohols” (J Med Chem, 1979).
Active and inactive are the calls of the source. The rule behind the calls is not given here.

Experiments:
[1] = tested on: Rattus norvegicus; test: Hypoglycemic activity in 48 hrs fasted Charles River rat at 50 mg/kg measured at 7 hrs relative to control; format: functional, organism-based; set-up: dose 50 mg/kg
[2] = tested on: Rattus norvegicus; test: Hypoglycemic activity in 48 hrs fasted Charles River rat at 150 mg/kg, po measured at 2 hrs relative to control; format: functional
[3] = tested on: Rattus norvegicus; test: Hypoglycemic activity in 48 hrs fasted Charles River rat at 150 mg/kg, po measured at 1 hr relative to control; format: functional
[4] = species: Rattus norvegicus; test: Toxicity in rat assessed as mortality measured up to 24 hrs; format: organism-based; conditions: in vivo
[5] = tested on: Rattus norvegicus; test: Hypoglycemic activity in 48 hrs fasted Charles River rat at 150 mg/kg, po measured at 5 hrs relative to control; format: functional
[6] = tested on: Rattus norvegicus; test: Toxicity in rat assessed as increase in hepatic triglyceride level at 50 mg/kg measured after 4 hrs relative to control; format: organism-based; set-up: dose 50 mg/kg; conditions: in vivo
[7] = tested on: Rattus norvegicus; test: Hypoglycemic activity in 48 hrs fasted Charles River rat at 150 mg/kg, po measured at 4 hrs relative to control; format: functional
[8] = species: Rattus norvegicus; test: Toxicity in rat assessed as increase in hepatic triglyceride level measured up to 24 hrs; format: organism-based; conditions: in vivo
[9] = species: Rattus norvegicus; test: Toxicity in rat assessed as mortality measured at 6 hrs; format: organism-based; conditions: in vivo
[10] = tested on: Rattus norvegicus; test: Hypoglycemic activity in 48 hrs fasted Charles River rat at 300 mg/kg, po measured at 1 hr relative to control; format: functional
[11] = tested on: Rattus norvegicus; test: Hypoglycemic activity in 48 hrs fasted Charles River rat at 300 mg/kg, po measured at 2 hrs relative to control; format: functional
[12] = tested on: Rattus norvegicus; test: Hypoglycemic activity in 48 hrs fasted Charles River rat at 300 mg/kg, po measured at 4 hrs relative to control; format: functional
[13] = tested on: Rattus norvegicus; test: Hypoglycemic activity in 48 hrs fasted Charles River rat at 200 mg/kg, po measured at 1 hr relative to control; format: functional
[14] = tested on: Rattus norvegicus; test: Hypoglycemic activity in 48 hrs fasted Charles River rat at 200 mg/kg, po measured at 4 hrs relative to control; format: functional
[15] = tested on: Rattus norvegicus; test: Hypoglycemic activity in 48 hrs fasted Charles River rat at 200 mg/kg, po measured at 2 hrs relative to control; format: functional
[16] = tested on: Rattus norvegicus; test: Hypoglycemic activity in 48 hrs fasted Charles River rat at 150 mg/kg, po measured at 7 hrs relative to control; format: functional, organism-based; set-up: dose 150 mg/kg
[17] = tested on: Rattus norvegicus; test: Hypoglycemic activity in 48 hrs fasted Charles River rat at 260 mg/kg, po measured at 2 hrs relative to control; format: functional
[18] = tested on: Rattus norvegicus; test: Hypoglycemic activity in 48 hrs fasted Charles River rat at 260 mg/kg, po measured at 1 hr relative to control; format: functional
[19] = tested on: Rattus norvegicus; test: Hypoglycemic activity in 48 hrs fasted Charles River rat at 260 mg/kg, po measured at 4 hrs relative to control; format: functional
[20] = tested on: Rattus norvegicus; test: Hypoglycemic activity in 48 hrs fasted Charles River rat at 300 mg/kg, ip measured at 4 hrs relative to control; format: functional; conditions: route intraperitoneal
[21] = tested on: Rattus norvegicus; test: Hypoglycemic activity in 48 hrs fasted Charles River rat at 300 mg/kg, ip measured at 2 hrs relative to control; format: functional; conditions: route intraperitoneal
[22] = tested on: Rattus norvegicus; test: Hypoglycemic activity in 48 hrs fasted Charles River rat at 300 mg/kg, ip measured at 1 hr relative to control; format: functional; conditions: route intraperitoneal

**Q.** For `Cc1cccnc1CCCO`, which Activity [1] is on record?
**A.** Its Activity is “Active”.

**Q.** What about the Activity [2] of the same molecule?
**A.** Its Activity is -18%.

**Q.** And the Activity [3]?
**A.** The Activity was -22%.

**Q.** What about the Activity [4] of the same molecule?
**A.** The Activity was “Toxic”.

**Q.** And the Activity [5]?
**A.** The Activity was -87%.

**Q.** And the “fold change (FC)” value [6]?
**A.** Its value is 10.

**Q.** What about the Activity [7] of the same molecule?
**A.** The Activity was -68%.

**Q.** What does the source list for `CC(=O)OCCCc1ncccc1C`?
**A.** Activity [2]: -34%; Activity [3]: 21%; Activity [8]: Toxic; Activity [4]: Toxic; Activity [7]: -73%

**Q.** For `Cc1cnc(CO)c(C)c1.Cl`, which Activity [2] is on record?
**A.** The Activity was -17%.

**Q.** What about the Activity [3] of the same molecule?
**A.** Its Activity is -12%.

**Q.** What about the Activity [5] of the same molecule?
**A.** Its Activity is -9%.

**Q.** What about the Activity [7] of the same molecule?
**A.** Its Activity is -1%.

**Q.** Which Activity [2] does the source give for `Cc1cccnc1/C=C/C(=O)O` here?
**A.** Its Activity is 4%.

**Q.** And the Activity [3]?
**A.** The Activity was -5%.

**Q.** And the Activity [7]?
**A.** The Activity was 23%.

**Q.** Which Activity [2] does the source give for `Cc1ccc[n+](C)c1CCCO.[I-]` here?
**A.** The Activity was 3%.

**Q.** What about the Activity [3] of the same molecule?
**A.** Its Activity is -1%.

**Q.** What about the Activity [7] of the same molecule?
**A.** The Activity was -14%.

**Q.** How did the Activity [2] turn out when `Cc1ccc[n+]([O-])c1CCCO` was run?
**A.** Its Activity is -3%.

**Q.** What about the Activity [3] of the same molecule?
**A.** Its Activity is -6%.

**Q.** And the Activity [7]?
**A.** Its Activity is -8%.

**Q.** Which results are given for `Cc1cccnc1CCCS`?
**A.** Activity [2]: -14%; Activity [3]: -9%; Activity [7]: -18%

**Q.** What does the source list for `Cc1cccnc1CCC(=O)O`?
**A.** Activity [2]: -28%; Activity [3]: 5%; Activity [8]: Toxic; Activity [4]: Toxic; Activity [5]: -90%; Activity [7]: -85%; Activity [9]: Toxic

**Q.** For `Cc1cccnc1CC(O)C(Cl)(Cl)Cl.Cl` (centres undefined), which Activity [2] is on record?
**A.** The Activity was -29%.

**Q.** What about the Activity [3] of the same molecule?
**A.** Its Activity is -16%.

**Q.** And the Activity [7]?
**A.** Its Activity is -16%.

**Q.** For `Cc1cnc(CCCO)c(C)c1.Cl`, which Activity [2] is on record?
**A.** Its Activity is -39%.

**Q.** And the Activity [3]?
**A.** Its Activity is 27%.

**Q.** What about the Activity [8] of the same molecule?
**A.** Its Activity is “Toxic”.

**Q.** And the Activity [4]?
**A.** The Activity was “Toxic”.

**Q.** And the Activity [7]?
**A.** Its Activity is -72%.

**Q.** How did the Activity [2] turn out when `Cc1cccnc1CC(O)C(=O)O.Cl` (centres undefined) was run?
**A.** The Activity was -5%.

**Q.** What about the Activity [3] of the same molecule?
**A.** The Activity was -9%.

**Q.** What about the Activity [7] of the same molecule?
**A.** Its Activity is -1%.

**Q.** What does the source list for `OCc1cccnc1` [NICOTINYL ALCOHOL]?
**A.** Activity [2]: -3%; Activity [3]: 11%; Activity [7]: -19%

**Q.** What does the source list for `C[n+]1cccc(CCCO)c1.[I-]`?
**A.** Activity [2]: -14%; Activity [3]: -13%; Activity [7]: -12%

**Q.** What does the source list for `OCCCc1ccccn1`?
**A.** Activity [2]: 9%; Activity [5]: 42%; Activity [7]: 46%

**Q.** `Cc1cccnc1CCC(C)(C)O.[O-][Cl+3]([O-])([O-])O` was tested. Which Activity [2] did it give?
**A.** Its Activity is -7%.

**Q.** What about the Activity [3] of the same molecule?
**A.** Its Activity is 6%.

**Q.** What about the Activity [7] of the same molecule?
**A.** The Activity was -10%.

**Q.** `CC1CCCNC1CCCO.Cl` (centres undefined) was tested. Which Activity [2] did it give?
**A.** The Activity was -3%.

**Q.** And the Activity [3]?
**A.** The Activity was -15%.

**Q.** What about the Activity [7] of the same molecule?
**A.** The Activity was -6%.

**Q.** What does the source list for `Cc1cccnc1CC(C)O.Cl` (centres undefined)?
**A.** Activity [2]: -3%; Activity [3]: 3%; Activity [7]: -12%

**Q.** With `OCCCc1ccncc1` as the molecule, how does the Activity [2] read?
**A.** The Activity was 14%.

**Q.** What about the Activity [3] of the same molecule?
**A.** The Activity was 17%.

**Q.** And the Activity [7]?
**A.** Its Activity is 33%.

**Q.** How did the Activity [2] turn out when `Cc1cc2ccccc2nc1CCCO.Cl` was run?
**A.** Its Activity is -9%.

**Q.** And the Activity [3]?
**A.** The Activity was 16%.

**Q.** What about the Activity [7] of the same molecule?
**A.** Its Activity is -10%.

**Q.** For `Cc1ncccc1CO.Cl`, which Activity [2] is on record?
**A.** Its Activity is 1%.

**Q.** What about the Activity [3] of the same molecule?
**A.** The Activity was -3%.

**Q.** What about the Activity [7] of the same molecule?
**A.** The Activity was -11%.

**Q.** `OC(Cc1ccccn1)C(Cl)(Cl)Cl` (centres undefined) was tested. Which Activity [10] did it give?
**A.** The Activity was 24%.

**Q.** And the Activity [11]?
**A.** The Activity was 40%.

**Q.** What about the Activity [12] of the same molecule?
**A.** The Activity was 101%.

**Q.** For `OCc1ccccn1` [PICONOL], which Activity [2] is on record?
**A.** The Activity was 6%.

**Q.** What about the Activity [3] of the same molecule?
**A.** The Activity was 4%.

**Q.** And the Activity [7]?
**A.** The Activity was 2%.

**Q.** Which results are given for `COCCCc1ncccc1C`?
**A.** Activity [2]: -14%; Activity [3]: -15%; Activity [8]: Toxic; Activity [4]: Toxic; Activity [5]: -52%; Activity [7]: -29%

**Q.** Which Activity [2] does the source give for `Cc1cccnc1CO.Cl` here?
**A.** Its Activity is 0%.

**Q.** What about the Activity [3] of the same molecule?
**A.** The Activity was -9%.

**Q.** What about the Activity [7] of the same molecule?
**A.** Its Activity is 3%.

**Q.** Which results are given for `CCCCNC(=O)NS(=O)(=O)c1ccc(C)cc1` [TOLBUTAMIDE]?
**A.** Activity [13]: 28%; Activity [14]: 48%; Activity [15]: 47%

**Q.** How did the Activity [2] turn out when `CC(=O)Cc1ncccc1C` was run?
**A.** Its Activity is -14%.

**Q.** What about the Activity [3] of the same molecule?
**A.** The Activity was -12%.

**Q.** What about the Activity [7] of the same molecule?
**A.** The Activity was -8%.

**Q.** How did the Activity [2] turn out when `OCc1ccncc1` [PYRIDINE 4-METHANOL] was run?
**A.** The Activity was 0%.

**Q.** What about the Activity [3] of the same molecule?
**A.** The Activity was 4%.

**Q.** And the Activity [7]?
**A.** Its Activity is -4%.

**Q.** With `OCCCc1cccnc1` as the molecule, how does the Activity [2] read?
**A.** Its Activity is -12%.

**Q.** What about the Activity [3] of the same molecule?
**A.** The Activity was 3%.

**Q.** And the Activity [16]?
**A.** The Activity was “Active”.

**Q.** And the Activity [7]?
**A.** The Activity was -24%.

**Q.** For `Cc1cccnc1C.Cl`, which Activity [2] is on record?
**A.** The Activity was -5%.

**Q.** What about the Activity [3] of the same molecule?
**A.** The Activity was 0%.

**Q.** And the Activity [7]?
**A.** The Activity was 8%.

**Q.** How did the Activity [2] turn out when `Cc1cccnc1CCCCO` was run?
**A.** The Activity was -9%.

**Q.** What about the Activity [3] of the same molecule?
**A.** Its Activity is -9%.

**Q.** And the Activity [7]?
**A.** The Activity was 0%.

**Q.** With `Cc1ccc(CCCO)nc1.[O-][Cl+3]([O-])([O-])O` as the molecule, how does the Activity [17] read?
**A.** Its Activity is -1%.

**Q.** What about the Activity [18] of the same molecule?
**A.** The Activity was 0%.

**Q.** And the Activity [19]?
**A.** The Activity was 18%.

**Q.** How did the Activity [2] turn out when `Cc1cccnc1CCO` was run?
**A.** The Activity was -14%.

**Q.** What about the Activity [3] of the same molecule?
**A.** The Activity was -8%.

**Q.** What about the Activity [7] of the same molecule?
**A.** Its Activity is 8%.

**Q.** How did the Activity [20] turn out when `Cc1cccnc1C(=O)O` was run?
**A.** Its Activity is -15%.

**Q.** What about the Activity [21] of the same molecule?
**A.** The Activity was -9%.

**Q.** What about the Activity [22] of the same molecule?
**A.** Its Activity is -8%.

**Q.** Which results are given for `Cc1ncccc1CCCO.[O-][Cl+3]([O-])([O-])O`?
**A.** Activity [2]: -8%; Activity [3]: -4%; Activity [7]: -1%
